Test results taken from paper PMC9940851, “Seleno Containing Compounds as Potent and Selective Antifungal Agents” (ACS Infectious Diseases, 2022).
In brackets after ≈: the same amount, converted by molar mass.

How the values were obtained:
MpaCA = biological target: T1, MpaCA (Malassezia pachydermatis, UniProt A0A0M8MPA4); assay: stopped-flow CO2 hydrase assay; format: biochemical
T1 construct: gene Malapachy_3798
T1 sequence (A0A0M8MPA4 1-242): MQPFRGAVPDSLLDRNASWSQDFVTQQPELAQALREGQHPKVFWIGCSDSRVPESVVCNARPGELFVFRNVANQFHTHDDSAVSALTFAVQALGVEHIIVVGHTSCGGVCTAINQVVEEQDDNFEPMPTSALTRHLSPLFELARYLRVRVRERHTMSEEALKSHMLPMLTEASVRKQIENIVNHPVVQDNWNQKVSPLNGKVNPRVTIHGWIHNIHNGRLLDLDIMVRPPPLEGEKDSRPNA

MgCA = biological target: T2, MgCA (Malassezia globosa, UniProt A8Q1N3); assay: stopped-flow CO2 hydrase assay; format: biochemical
T2 construct: gene MGL_1814
T2 sequence (A8Q1N3 1-241): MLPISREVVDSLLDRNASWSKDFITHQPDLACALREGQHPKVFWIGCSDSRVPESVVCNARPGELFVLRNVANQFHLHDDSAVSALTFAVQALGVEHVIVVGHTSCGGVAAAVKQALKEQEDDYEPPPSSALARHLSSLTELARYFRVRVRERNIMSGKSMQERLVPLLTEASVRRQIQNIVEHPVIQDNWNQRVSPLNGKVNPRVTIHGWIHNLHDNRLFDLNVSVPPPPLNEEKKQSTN
Outline: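 Ki was derived by nonlinear least-squares fitting using the Cheng-Prusoff equation. Recombinant carbonic anhydrase at 5–12 nM was first preincubated with inhibitor at room temperature for 15 min. CO2 hydration at 1.7–17 mM CO2 was tracked by stopped-flow over 10–100 s with 0.2 mM phenol red read at 557 nm, in 20 mM Hepes pH 7.4 containing 20 mM Na2SO4. Initial rates were taken from no fewer than six traces with uncatalysed rates subtracted, and at least three determinations were averaged.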

[1] = system: T3, M. pachydermatis DSMZ 6172; assay: microbe, parasite or virus in culture; set-up: broth microdilution MIC, M. pachydermatis and Candida, 35 °C; conditions: Malassezia pachydermatis, DSMZ6172
T3 construct: DSMZ 6172 (CDC 16334)
Description: (§1) Inoculum preparations for antifungal assays were performed following the CLSI guidelines for antifungal susceptibility testing of yeasts.[31] Antifungal activity was evaluated on unicellular yeasts Candida albicans ATCC 10231, Candida glabrata ATCC 90030 (DSMZ 11226), Malassezia pachydermatis CDC 16334 (DSMZ 6172), Malassezia globosa ATCC MYA 4612, and Malassezia furfur ATCC 14521. All the fungal strains were stored at −80 °C in cryovials. Then Candida spp. and Malassezia pachydermatis were reactivated in RPMI 1640 broth for 24–48 h at 35 °C. The so obtained fresh cultures were streaked onto Sabouraud dextrose agar and incubated for 24–48 h at 35 °C. Malassezia globosa and furfur were reactivated in modified RPMI 1640 broth[32] for 24–48 h at 35 °C (M. furfur) and 33 °C (M. globosa), and then the cultures were streaked onto Leeming and Notman agar (MLNA) and incubated for 48–72 h at 35 °C for M. furfur and at 33 °C for M. globosa. The fungal inoculum for the testing was prepared by suspending in phosphate buffer (PB) 10 mM pH 7 4–5 colonies of about 1 mm diameter. The fungal suspension was then adjusted to a final optical density of 0.5 McFarland standard (1–5 × 10^6 cells/mL). The compound solutions were tested in a range of concentrations from 0.01 μg/mL to 256 μg/mL, and 50 μL were then added in 96 wells microtiter plates with 50 μL of fungal inoculum and incubated for 24–48 h at 35 °C. Growth and sterility controls were performed. […] Compounds 3a, 3c, 5b, 7a–d, 9c, 11e, 11i, and 14a,b were selected as representatives of the chemical moieties synthesized prior to their screen on yeasts of biomedical relevance such as M. pachydermatis DSMZ 6172, C. albicans ATCC 10231, and C. glabrata ATCC 90030 (DSMZ 11226) strains. The clinical used drugs Ketoconazole, SeS2, and Amphotericin B were included as references (Table 1).

ATCC M. furfur 14521 = system: T4, ATCC M. furfur 14521; assay: microbe, parasite or virus in culture; conditions: Malassezia furfur
T4 construct: ATCC 14521
Description: as §1

M. globosa ATCC MYA 4612 = system: T5, M. globosa ATCC MYA 4612; assay: microbe, parasite or virus in culture; conditions: Malassezia globosa
T5 construct: ATCC MYA 4612
Description: as §1

Structure (SMILES): O=C(NC(=[Se])Nc1ccc(S(=O)(=O)Nc2nccs2)cc1)c1ccccc1 [10a, N-((4-(N-(Thiazol-2-yl)sulfamoyl)phenyl)carbamoselenoyl)benzamide]
- Ki (MpaCA): 42.9 µM
- Ki (MgCA): 52.8 µM
- MIC [1]: 1 µg/mL (≈ 2.15 µM)
- MIC (ATCC M. furfur 14521): 8 µg/mL (≈ 17.2 µM)
- MIC (M. globosa ATCC MYA 4612): 128 µg/mL (≈ 275 µM)

Structure (SMILES): O=C(NC(=[Se])Nc1ccc(S(=O)(=O)Nc2nccs2)cc1)c1cc(Br)cc(OC(F)(F)F)c1 [10b, 3-Bromo-N-((4-(N-(thiazol-2-yl)sulfamoyl)phenyl)carbamoselenoyl)-5-(trifluoromethoxy)benzamide]
- Ki (MpaCA): 85.3 µM
- Ki (MgCA): 9.26 µM
- MIC [1]: 16 µg/mL (≈ 25.5 µM)
- MIC (ATCC M. furfur 14521): 427 ± 148 µg/mL (≈ 679 µM)
- MIC (M. globosa ATCC MYA 4612): 341 ± 148 µg/mL (≈ 543 µM)

Structure (SMILES): CCCCCCCc1ccc(C(=O)NC(=[Se])Nc2ccc(S(=O)(=O)Nc3nccs3)cc2)cc1 [10c, 4-Heptyl-N-((4-(N-(thiazol-2-yl)sulfamoyl)phenyl)carbamoselenoyl)benzamide]
- Ki (MpaCA): 91.9 µM
- Ki (MgCA): 60.6 µM
- MIC [1]: 0.8 ± 0.29 µg/mL (≈ 1.42 µM)
- MIC (ATCC M. furfur 14521): 4 µg/mL (≈ 7.1 µM)
- MIC (M. globosa ATCC MYA 4612): > 256 µg/mL

Structure (SMILES): O=C(NC(=[Se])Nc1ccc(S(=O)(=O)Nc2nccs2)cc1)c1ccc([N+](=O)[O-])cc1 [10d, 4-Nitro-N-((4-(N-(thiazol-2-yl)sulfamoyl)phenyl)carbamoselenoyl)benzamide]
- Ki (MpaCA): 92.8 µM
- Ki (MgCA): 8.77 µM
- MIC [1]: 1.8 ± 1.89 µg/mL (≈ 3.53 µM)
- MIC (ATCC M. furfur 14521): 85.3 ± 37 µg/mL (≈ 167 µM)
- MIC (M. globosa ATCC MYA 4612): 26.7 ± 9.2 µg/mL (≈ 52.3 µM)

Structure (SMILES): O=C(NC(=[Se])Nc1ccc(S(=O)(=O)Nc2nccs2)cc1)c1ccc(F)cc1 [10e, 4-Fluoro-N-((4-(N-(thiazol-2-yl)sulfamoyl)phenyl)carbamoselenoyl)benzamide]
- Ki (MpaCA): 80.3 µM
- Ki (MgCA): 8.9 µM
- MIC [1]: 1 µg/mL (≈ 2.07 µM)
- MIC (ATCC M. furfur 14521): 2.3 ± 2.31 µg/mL (≈ 4.76 µM)
- MIC (M. globosa ATCC MYA 4612): 128 µg/mL (≈ 265 µM)

Structure (SMILES): O=C(NC(=[Se])Nc1ccc(S(=O)(=O)Nc2nccs2)cc1)c1ccc(I)cc1 [10f, 4-Iodo-N-((4-(N-(thiazol-2-yl)sulfamoyl)phenyl)carbamoselenoyl)benzamide]
- Ki (MpaCA): 74.3 µM
- Ki (MgCA): 10.2 µM
- MIC [1]: 2 µg/mL (≈ 3.38 µM)
- MIC (ATCC M. furfur 14521): 5.3 ± 2.31 µg/mL (≈ 8.96 µM)
- MIC (M. globosa ATCC MYA 4612): > 256 µg/mL

Structure (SMILES): O=C(NC(=[Se])Nc1ccc(S(=O)(=O)Nc2nccs2)cc1)c1ccc(Cl)cc1 [10g, 4-Chloro-N-((4-(N-(thiazol-2-yl)sulfamoyl)phenyl)carbamoselenoyl)benzamide]
- Ki (MpaCA): 66.7 µM
- Ki (MgCA): 36.1 µM
- MIC [1]: 1.3 ± 0.58 µg/mL (≈ 2.6 µM)
- MIC (ATCC M. furfur 14521): 64 µg/mL (≈ 128 µM)
- MIC (M. globosa ATCC MYA 4612): > 256 µg/mL

Structure (SMILES): NS(=O)(=O)c1ccc(O)c(NC(=[Se])NC(=O)c2ccccc2)c1 [11a]
- Ki (MpaCA): 13.4 µM
- Ki (MgCA): 4.1 µM
- MIC [1]: 1 µg/mL (≈ 2.51 µM)
- MIC (ATCC M. furfur 14521): 2.7 ± 1.15 µg/mL (≈ 6.78 µM)
- MIC (M. globosa ATCC MYA 4612): 128 µg/mL (≈ 321 µM)

Structure (SMILES): CCCCCCCc1ccc(C(=O)NC(=[Se])Nc2cc(S(N)(=O)=O)ccc2O)cc1 [11b]
- Ki (MpaCA): 78 µM
- Ki (MgCA): 4.93 µM
- MIC [1]: 8 µg/mL (≈ 16.1 µM)
- MIC (ATCC M. furfur 14521): 5.3 ± 2.31 µg/mL (≈ 10.7 µM)
- MIC (M. globosa ATCC MYA 4612): 256 µg/mL (≈ 516 µM)

Structure (SMILES): NS(=O)(=O)c1ccc(O)c(NC(=[Se])NC(=O)c2ccc([N+](=O)[O-])cc2)c1 [11c, N-((2-Hydroxy-5-sulfamoylphenyl)carbamoselenoyl)-4-nitrobenzamide]
- Ki (MpaCA): 91.2 µM
- Ki (MgCA): 5.02 µM
- MIC [1]: 0.5 µg/mL (≈ 1.13 µM)
- MIC (ATCC M. furfur 14521): 5.3 ± 2.31 µg/mL (≈ 12 µM)
- MIC (M. globosa ATCC MYA 4612): 128 µg/mL (≈ 289 µM)

Structure (SMILES): NS(=O)(=O)c1ccc(O)c(NC(=[Se])NC(=O)c2ccc(I)cc2)c1 [11d, N-((2-Hydroxy-5-sulfamoylphenyl)carbamoselenoyl)-4-iodobenzamide]
- Ki (MpaCA): 7.5 µM
- Ki (MgCA): 2.93 µM
- MIC [1]: 13.3 ± 4.6 µg/mL (≈ 25.4 µM)
- MIC (ATCC M. furfur 14521): 10.7 ± 4.62 µg/mL (≈ 20.4 µM)
- MIC (M. globosa ATCC MYA 4612): 128 µg/mL (≈ 244 µM)

Structure (SMILES): NS(=O)(=O)c1ccc(O)c(NC(=[Se])NC(=O)c2ccc(Cl)cc2)c1 [11f, 4-Chloro-N-((2-hydroxy-5-sulfamoylphenyl)carbamoselenoyl)benzamide]
- Ki (MpaCA): 54.2 µM
- Ki (MgCA): 5.13 µM
- MIC [1]: 0.5 µg/mL (≈ 1.16 µM)
- MIC (ATCC M. furfur 14521): 4 µg/mL (≈ 9.24 µM)
- MIC (M. globosa ATCC MYA 4612): 256 µg/mL (≈ 592 µM)

Structure (SMILES): NS(=O)(=O)c1ccc(O)c(NC(=[Se])NC(=O)c2ccc(Br)cc2F)c1 [11g, 4-Bromo-2-fluoro-N-((2-hydroxy-5-sulfamoylphenyl)carbamoselenoyl)benzamide]
- Ki (MpaCA): 70.9 µM
- Ki (MgCA): 6.01 µM
- MIC [1]: 3.33 ± 1.15 µg/mL (≈ 6.72 µM)
- MIC (ATCC M. furfur 14521): 5.3 ± 2.31 µg/mL (≈ 10.7 µM)
- MIC (M. globosa ATCC MYA 4612): 256 µg/mL (≈ 517 µM)
